The results in this text go back to patent US20040018500A1, “Methods and systems for analyzing complex biological systems” (priority 2001, published 2004).

Experiment [1] deals with Saccharomyces cerevisiae wild type strain BY4743. Nature of the experiment: AF1 gene expression analysis (microarray) of yeast treated with antifungal drugs. The experiment is classed as cell-based. As to conditions: p < 0.05; KEGG pathway mapping.
Procedure: Saccharomyces cerevisiae wild type strain BY4743 was purchased from American Type Culture Center (ATCC, Manassas, Va.). The yeast strain was grown in YPD or SD media. […] The cultures started from fresh single colonies were grown in 1.0 ml YPD overnight at 30° C. […] The OD600 was adjusted to 1.0 with YPD media, then 2.0 ml of each was inoculated into three 250 ml flasks, each containing 50 ml of SD media. […] The cells were kept growing for another two hours, then collected by centrifugation at 4000 rpm for 5 minutes at 4° C. Pellets were washed once with ice-cold water, then were lyophilized overnight at 4° C. […] RNA quality was determined using the Bioanalyzer 2100 and the RNA 6000 assay (Agilent Technologies, Palo Alto, Calif.) according to manufacturer's instructions. RNA concentrations were determined spectrophotometrically by measuring the absorption at 260 nm in an Ultrospec 2000 (Pharmacia Biotech, Piscataway, N.J.). […] Labeled cRNAs were evaluated using the RNA 6000 assay on the Agilent Bioanalyzer 2100. Labeled cRNA concentrations were determined spectrophotometrically by measuring the absorption at 260 nm in an Ultrospec 2000 (Pharmacia Biotech, Piscataway, N.J.). […] Each feature was determined from an array's associated pattern file and a detection algorithm. […] Data was evaluated after combining results from fluor reversal replicate hybridizations. […]
The test system is the same in experiment [2]. In words: AF1 combined gene expression and metabolite data mapped to KEGG reactions and pathways. The experiment is classed as cell-based. The text has this: In AF1, two different technologies were utilized: gene expression analysis (for examination of mRNA expression) and metabolite analysis. […] As noted previously, existing metabolic databases may be helpful in practicing the methods and systems of the present invention, but many databases include limitations that make their use in data analysis and pathway mapping less than straightforward. […] This caveat to KEGG makes it difficult to pinpoint the correct pathway when attempting to link a gene to a specific pathway. […] The pathway score indicates how meaningful the mapping is, or how likely it is to be correctly indicative of the pathway involved in the perturbation under examination. The method provides a pathway score based on perturbation levels of genes and/or compounds and the information content of each gene and/or compound in the pathway, i.e., a pathway score indicates the extent to which other pathways are mapped to a gene/compound. For example, imagine that two genes are perturbed in a particular experiment. One gene maps to only one pathway, giving a high degree of probability that the perturbed pathway is the one identified in the mapping. The second gene maps to three pathways. In the later example, there is only one-third the probability that the pathway identified in the mapping is the one perturbed. The present invention provides a method for calculating the pathway scores, so that more weight is given to a score of a gene or compound that maps to only one pathway than to a score of a gene or compound that maps to multiple pathways. […] Where n=the total number of genes in the pathway; ipath—count=the number of pathways containing a gene; and j=the number of genes in the pathway that are perturbed. Another factor to be considered when weighting a pathway score is the degree of perturbation. Degree of perturbation can be calculated, for example, based on a number of standard deviations from a norm, and included in an equation such as the one shown above, so that not only the number of pathways is taken into account, but also accounts for the amount of gene transcript or compound present as compared to a control. Compounds were also linked to pathways using the KEGG database. […] Of the 676 compounds under consideration, 77 were detected in the AF1 samples. […] The multiple mapping feature of KEGG makes it difficult to pinpoint the correct pathway when trying to link a compound to a specific pathway. […] A pathway score calculation is applied to the compounds to account for both information content (number of pathways a compound maps to) and perturbation level. The data were then combined to determine the number of reactions showing an enzyme and at least one compound perturbed, and to determine the number of pathways having at least one enzyme and one perturbed compound perturbed. The results of the analysis are represented in Tables 16 and 17, and were difficult to interpret, illustrating that the ability to draw conclusions from compound mapping to pathways is limited when absent additional data.

Regarding `C[C@@H]1[C@H](O)[C@@H](C)/C=C/C=C/C=C/C=C/C=C/C=C/C=C/[C@H](O[C@@H]2O[C@H](C)[C@@H](O)[C@H](N)[C@@H]2O)C[C@@H]2O[C@](O)(C[C@@H](O)C[C@@H](O)[C@H](O)CC[C@@H](O)C[C@@H](O)CC(=O)O[C@H]1C)C[C@H](O)[C@H]2C(=O)O` [Amphoteracin B], the “# Pathways Affected by at Least One Gene” value in experiment [1] is 97. For the same compound, in experiment [2], the “Number Of Pathways Having at Least One Enzyme and One Compound Perturbed (# Reactions)” value turned out to be 37; the “Number of Reactions Having an Enzyme and at Least One Compound Perturbed” value is listed as 54.
